Measurements from US20090163540A1, “Quinine Sulfate Polymorphs, Processes of Preparing, Compositions and Uses Thereof” (priority 2007, published 2009).
Counter-ions that a name gives are not always drawn.

Key:
[1] = Moisture balance (moisture sorption/desorption, 5% to 95% RH) with post-MB XRPD; type: physicochemical
Description: In addition to XRPD, quinine sulfate polymorph A is analyzed by DSC, TGA, moisture balance (MB), post-MB XRPD, hotstage microscopy (HSM), Karl Fischer (KF) and variable temperature X-ray powder diffraction (VT-XRPD); a summary of the analyses is provided in Table 11b. Moisture sorption/desorption data are collected on a VTI SGA-100 Vapor Sorption Analyzer. Sorption and desorption data are collected over a range of 5% to 95% relative humidity (RH) at 10% RH intervals. Samples are not dried prior to analysis. Equilibrium criteria used for analysis are less than 0.0100% weight change in 5 minutes, with a maximum equilibration time of 3 hours if the weight criterion is not met. Data are not corrected for the initial moisture content of the samples. Sodium chloride and polyvinylpyrrolidone are used as calibration standards.

[2] = Variable-temperature XRPD (solid form on heating); type: physicochemical
Description: In addition to XRPD, quinine sulfate polymorph A is analyzed by DSC, TGA, moisture balance (MB), post-MB XRPD, hotstage microscopy (HSM), Karl Fischer (KF) and variable temperature X-ray powder diffraction (VT-XRPD); a summary of the analyses is provided in Table 11b. Variable-temperature XRPD is performed on a Shimadzu XRD-6000 X-ray powder diffractometer equipped with an Anton Paar HTK 1200 high temperature stage. The sample is packed in a ceramic holder and analyzed from 2.5 to 40 °2θ at 3°/min (0.4 sec/0.02° step). A silicon standard is analyzed to check the instrument alignment. Temperature calibration is performed using vanillin and sulfapyridine standards. Data are collected and analyzed using XRD-6000 v. 4.1.

post-MB XRPD form ([1]; solid form after moisture balance): Form A
MB (moisture balance) result ([1]; sorption/desorption 5% to 95% RH at 10% RH intervals): non-hygroscopic
VT-XRPD form ([2]; 40° C. (listed after 110° C.)): 40° C.: Form A
VT-XRPD form ([2]; 50° C.): 50° C.: Form A
VT-XRPD form ([2]; 75° C.): 75° C.: Form A
VT-XRPD form ([2]; 110° C.): 110° C.: Pattern D
VT-XRPD form ([2]; ambient temp): ambient temp: Form A
SMILES: C=C[C@H]1C[N@@]2CC[C@H]1C[C@H]2[C@H](O)c1ccnc2ccc(OC)cc12 [Form A, quinine sulfate]
